PMC6013238, “Development of novel NEMO-binding domain mimetics for inhibiting IKK/NF-κB activation” (PLoS Biology, 2018)
Where “and” joins values, the source holds several entries; their conditions need not be identical. Equal entries are not always repeated.

How the values were obtained:
NEMO/IKKα interaction = biological target: T1, NEMO/IKKα interaction (Mus musculus, UniProt O88522); test: Co-immunoprecipitation of NEMO and IKKα in Raw 264.7 cells; type: cell-based; conditions: 0, 25, 50, 100, 150 μM, 30 min
T1 construct: Co-immunoprecipitation of endogenous IKKβ and NEMO; endogenous in cells; host or cells: Raw 264.7
T1 sequence (O88522 whole entry): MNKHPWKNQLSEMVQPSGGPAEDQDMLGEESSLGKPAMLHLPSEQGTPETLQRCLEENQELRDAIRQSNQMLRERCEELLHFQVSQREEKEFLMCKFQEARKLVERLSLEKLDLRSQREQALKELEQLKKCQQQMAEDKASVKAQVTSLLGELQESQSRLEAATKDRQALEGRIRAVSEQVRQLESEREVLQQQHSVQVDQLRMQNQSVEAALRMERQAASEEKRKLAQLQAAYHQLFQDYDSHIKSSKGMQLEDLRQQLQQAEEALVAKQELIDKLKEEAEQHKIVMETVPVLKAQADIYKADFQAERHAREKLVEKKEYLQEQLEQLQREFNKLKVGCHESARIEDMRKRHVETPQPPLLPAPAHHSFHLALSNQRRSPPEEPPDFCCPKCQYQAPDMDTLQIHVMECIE
Experimental: To determine whether the novel NBD mimetics target the NEMO-IKKβ interaction in vivo, co-immunoprecipitations were performed using extracts from Raw 264.7 macrophages (Fig 5A). […] No interaction between NEMO and TNF receptor-associated factor 2 (TRAF2) or IκBα was observed under these conditions. […] The levels of phosphorylated IKK complex, IκBα, and p65 in response to TNF-α and LPS were all reduced by SR12343 (Fig 5D & 5E). […] However, there were no changes in the levels of phospho-c-Jun N-terminal kinase (p-JNK), p-p38MAPK, total JNK, and p38MAPK by treatment with SR12343 (150 μM) in response to TNF-α or LPS stimulation (Fig 5G & 5H). […]
(A) Co-IP analysis detecting the IKKβ/NEMO interaction. […] NEMO-binding products were then analyzed for levels of IKKβ, IKKα, TRAF2, and IκBα (negative control), and levels of NEMO were used as a loading control (left panel). […] The levels of IKKβ-FLAG binding to GST-NEMO were determined by western blot analysis with GST-NEMO used as a loading control. […] Cell lysates were analyzed for activity of the IKK/NF-κB signaling pathway including activation of IKK complex, IκBα, and p65. […] Cell lysates were harvested and analyzed for activation of noncanonical NF-κB signaling, the processing of p100 to p52. […]

NF-κB activation = test: Dual-luciferase (NF-κB firefly/SV40-Renilla) reporter assay, TNF-α-stimulated HEK293 cells; type: cell-based, human; conditions: for Relative luciferase activity (NF-κB/Renilla): Fig 4B, CTRL about 1; for NF-κB luciferase activity, dose-dependent curve: Fig S1A, CTRL about 100; for IC50: Homo sapiens, HEK293, luciferase assays at 0, 25, 50, 100, 150 μM, GraphPad, read-out: IC50 of inhibition of TNF-α-mediated NF-κB activation

Structure (SMILES) | NEMO/IKKα binding (Co-IP) (NEMO/IKKα interaction) | Relative luciferase activity (NF-κB/Renilla) (NF-κB activation; 25 μM) | Relative luciferase activity (NF-κB/Renilla) (NF-κB activation; 50 μM) | Relative luciferase activity (NF-κB/Renilla) (NF-κB activation; 100 μM) | NF-κB luciferase activity, dose-dependent curve (NF-κB activation; 25 μM) | NF-κB luciferase activity, dose-dependent curve (NF-κB activation; 50 μM) | NF-κB luciferase activity, dose-dependent curve (NF-κB activation; 100 μM) | IC50 (NF-κB activation) [µM] | Relative luciferase activity (NF-κB/Renilla) (NF-κB activation; 150 μM) | NF-κB luciferase activity, dose-dependent curve (NF-κB activation; 150 μM)
O=C(CNc1ccc(Cl)cn1)NCCc1cccc(Br)c1 [SR12343] | only a marginal effect | 0.621 and 0.6268 and 0.6057 | 0.3824 and 0.4086 and 0.3925 | 0.327 and 0.2292 and 0.2181 | 62 and 63 and 60 | 38 and 41 and 39 | 33 and 23 and 22 | 37 |  | 
O=C(CNCCc1cc(F)cc(F)c1)Nc1ccc(Cl)cn1 [SR12460] |  | 0.1864 and 0.2241 and 0.2663 | 0.09822 and 0.1016 and 0.1003 | 0.1076 and 0.0851 and 0.1209 | 18.6398 and 22.411 and 26.6317 | 9.822 and 10.1552 and 10.0281 | 10.7557 and 8.5097 and 12.0922 | 11.3 | 0.09311 and 0.129 and 0.1129 | 9.311 and 12.8976 and 11.2908
